From patent US20120101163A1, “COMPOSITION FOR INHIBITING CANCER METASTASIS” (TAIPEI MEDICAL UNIVERSITY, priority 2010, published 2012)

Key:
[1] = test system: human umbilical vein endothelial cells; test: Cell viability assay of human umbilical vein endothelial cells; type: cell-based; conditions: 24 hours
Protocol: A medium in a culturing plate containing cells grown covering the whole bottom of the culturing plate, was removed. The cells were washed with 10 ml of PBS, and then suspended and mixed well with 10 ml of medium (a part of the cells need to be suspended with Trypsin-EDTA buffer). The numbers of the cells were calculated by a hemocytometer, and the cells were diluted to an appropriate cell concentration and added into the wells of a 24 well culturing plate by an amount of 500 μl/well. The 24 well culturing plates were placed in an incubator at 37° C. in a humidified atmosphere containing 5% CO2. After the cells were attached onto the bottom of the wells, the medium in each well was removed, and fresh mediums with different concentrations of a test drug were added into wells, respectively (if the cells were suspension cells, the fresh medium may be added into the wells, directly). Then, the 24 well culturing plates were placed in an incubator at 37° C. in a humidified atmosphere containing 5% CO2 for 24 hours. After that, an upper medium in each well was removed. The cells were washed with a PBS buffer twice, and then an MTT solution which was prepared with a medium was added to each well. After the 24 well culturing plates were placed in an incubator at 37° C. for reacting 4-6 hours, an upper medium in each well was removed, and 100 μl of DMSO was added to each well to solubilize the formazan precipitates. After that, an ELISA reader was used to determine the absorbance for each well at 600 nm.
After human umbilical vein endothelial cells were treated with the different concentrations of L-Aspartic acid β-hydroxamate (CH) and different concentrations of L-Glutamic acid γ-hydroxamate (DH) for 24 hours, respectively, the cell viability assays were performed to the treated human umbilical vein endothelial cells and the angiogenesis conditions of the human umbilical vein endothelial cells were recorded. The results of the cell viability assays are shown as FIGS. 13 (A) and 14 (A). Photographs for the human umbilical vein endothelial cells treated with L-Aspartic acid β-hydroxamate (CH) and human umbilical vein endothelial cells treated with L-Glutamic acid γ-hydroxamate (DH) are shown as FIGS. 13 (B) and 14 (B), respectively.

[2] = test system: matrix metalloproteinase-2; test: RT-PCR, MMP-2 gene expression in HT 1080 cells; type: cell-based, Human
Protocol: 7. RNA Extraction and Reverse Transcription-Polymerase Chain Reaction (RT-PCR)
HT 1080 cells with appropriate cell numbers were cultured in 60 mm culturing plates for 6 hours, respectively. After the cells were attached onto the bottom of the plate and formed a monolayer, the medium in the plate was removed. Fresh serum free mediums with different concentrations of a test sample were added to the plates, respectively, and 100 nM PMA was added to each plate to induce the cells to express great quantities of matrix metalloproteinase-2 and matrix metalloproteinase-9, and the plates were placed in a temperature of 37° C. for 6 hours. After that, the total RNA of the cells were extracted with the TRIzol reagent and reverse transcripted by a reverse transcriptase to synthesize cDNA. The synthesize cDNA was used as a template to perform GADPH, matrix metalloproteinase-2 and matrix metalloproteinase-9 PCR amplifications.

[3] = test system: human umbilical vein endothelial cells; test: Tube formation assay (angiogenesis); type: cell-based
Protocol: 13. Tube Formation Assay (Malinda et al., 1999)
1μ-Slide Angiogenesis ibiTreat chambers were coated with 10 μl Matrigel™ Mixtrix and placed in an incubator at 37° C. for 1 hour. 40 μl of a 3×10^5 cells/ml cell suspension was added to each chamber and left still for 20 minutes to let the cells attach to the chamber. After that, the medium in each chamber was removed. Fresh mediums with different concentrations of a test drug were added to the chambers, respectively and placed in an incubator at 37° C. After 18 hours, the angiogenesis appearance in each chamber was observed and photographed for recording.

[4] = test system: matrix metalloproteinase-9; test: Western blot analysis, MMP-9 protein expression in HT 1080 cells; type: cell-based, Human
Protocol: HT 1080 cells with appropriate cell numbers were cultured in 60 mm culturing plates for 12 hours, respectively. After the cells were attached onto the bottom of the plate and formed a monolayer, the medium in the plate was removed. Fresh serum-free mediums with different concentrations of a test drug were added to the plates, respectively, and 100 nM PMA was added to each plate to induce the cells to express great quantities of matrix metalloproteinase-2 and matrix metalloproteinase-9, and the plates were placed in a temperature of 37° C. for 24 hours. A quantitatively cultured supernatant in each plate was centrifuged or protein was extracted from cells in each plate to be quantitated, and then an SDS-sample buffer containing 2-ME was added therein to form a mixture. The mixture was injected into a 10% SDS-polyacrylamide gel […] and then electrophoresed. After electrophoresis was completed, the proteins in the gel were transferred to a PVDF membrane. The PVDF membrane was equilibrated with gelatin-NET at room temperature for 30 minutes. […]

HT 1080 cells = test: Wound healing assay and colony dispersion assay (cell migration); type: cell-based, Human
Protocol: 8. Wound Healing Assay (Park et al., 2005; Hwang et al., 2006)
Cells with appropriate cell numbers were cultured in a 24 well culturing plate for 12 hours. After the cells were attached to each bottom of each well of the plate and formed a monolayer, the medium in the well was removed. The middle of each bottom of each well having the monolayer thereon was scraped by a 200 μl tip to form a scratched line with a width of 1 mm. The cells in each well were washed with a PBS buffer twice, and fresh mediums with different concentrations of a test drug were added to the wells, respectively and cultured for 18 hours. After that, the upper medium in each well was removed. The cells were washed with a PBS buffer twice, fixed with 100% methanol and stained with a toluidine blue. The calculation for the migration rate of the cells was:
9. Colony Dispersion Assay (Hwang et al., 2006)
Cells with appropriate cell numbers were cultured in a 24 well culturing plate for 12 hours. After the cells were attached to each bottom of each well of the plate and formed a monolayer, the medium in the well was removed. Fresh mediums with different concentrations of a test drug were added to the wells, respectively and cultured for 3 days. After that, the upper medium in each well was removed. Then, the cells were washed with a PBS buffer twice, fixed with 100% methanol and stained with a toluidine blue.

NC(CCC(=O)NO)C(=O)O [DH, L-Glutamic acid γ-hydroxamate]
cytotoxicity to human umbilical vein endothelial cells ([1]; 0.25 mM): no cytotoxicity
viability of human umbilical vein endothelial cells ([1]; 0.75 mM): slight decreases
gene expression (mRNA) of matrix metalloproteinase-2 ([2]; HT 1080 cells, 0.4, 0.8, 1.2, and 1.6, 6 hours, RT-PCR): decreased
inhibition rate to the gene transcriptional expression of metalloproteinase-2 of a cancer cell ([2]; about 0.1-2 mM, stated as embodiment, 'and/or' MMP-9): 20-80%
inhibition rate to angiogenesis ([3]; about 0.1-1.5 mM, stated as embodiment): 10-90%
angiogenesis compared with the control group ([3]; increasing concentrations): significantly inhibited
protein expression amount of matrix metalloproteinase-9 secreted out of and left in HT 1080 cells ([4]; 0.4, 0.8, 1.2, and 1.6, 24 hours, Western blotting): all decreased
inhibition rate to the protein expression amount of matrix metalloproteinase-9 of a cancer cell ([4]; about 0.1-2 mM, stated as embodiment, 'and/or' MMP-2): 40-90%
IC50 (HT 1080 cells; Homo sapiens, HT-1080, 0.4, 1.2, 2 and 2.8 mM, 18 hours): 1750 µM
inhibition rate to cancer cell migration (HT 1080 cells; about 0.1-3 mM, stated as embodiment): 20-85%
